Results as given in publication PMC6027297, “A Short Peptide Inhibitor as an Activity-Based Probe for Matriptase-2” (Pharmaceuticals, 2018).
pKi: −log10 of the molar value. Residues, ends and D or L forms follow the SMILES beside them. *: point of attachment. Biotin = O=C1N[C@H]2[C@H](CS[C@H]2CCCCC(=O)*)N1; CH2Cl = ClC*

Legend:
matriptase-2 (MT-2) [1] = target: T1, matriptase-2 (MT-2) (Homo sapiens, UniProt Q8IU80); assay: MT-2 activity in supernatant of transfected HEK cells (fluorogenic substrate Boc-Gln-Ala-Arg-AMC); format: biochemical; details: probe 25–100 nM, Boc-Gln-Ala-Arg-AMC 40 µM, NaCl 150 mM, TRIS 50 mM, pH 8.0, 10 µg supernatant, 37 °C, 50 min, ex 340 nm, em 460 nm, non-linear regression of progress curves
T1 construct: This fragment consists of the catalytic and the three LDLRA domains of MT-2; made in house; host or cells: stably transfected HEK cells; concentrated culture supernatant, not purified
T1 sequence (Q8IU80 577-811 limits assumed): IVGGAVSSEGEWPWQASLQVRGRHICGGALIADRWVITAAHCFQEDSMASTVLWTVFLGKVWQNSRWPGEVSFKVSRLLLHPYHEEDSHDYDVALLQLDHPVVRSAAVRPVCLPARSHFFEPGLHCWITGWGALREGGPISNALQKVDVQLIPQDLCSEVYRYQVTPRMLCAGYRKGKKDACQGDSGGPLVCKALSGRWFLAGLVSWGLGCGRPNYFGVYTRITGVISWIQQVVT
T1 sequence (Q8IU80 438-576 partner limits assumed): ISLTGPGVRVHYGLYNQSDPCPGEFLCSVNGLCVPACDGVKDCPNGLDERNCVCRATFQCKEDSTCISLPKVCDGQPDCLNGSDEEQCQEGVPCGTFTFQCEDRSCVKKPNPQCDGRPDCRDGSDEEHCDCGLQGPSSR
Procedure: We used stably transfected human embryonic kidney (HEK) cells as the source for MT-2 [14]. […] Initially, the inhibitory potency of biotin-RQRR-CMK against MT-2 was assessed. For this purpose, we determined MT-2 activity in the supernatant of transfected HEK cells using a tripeptidic fluorogenic substrate. Probe concentrations of 25 nM to 100 nM were applied. Values kobs were obtained from non-linear regression of the progress curves of the supernatant experiment using the equation [P] = v0 (1 − e^−kobs t)/kobs + d(1) where [P] is the product concentration, v0 is the initial rate and d is the offset. […]
(§1) Stably transfected human embryonic kidney (HEK) cells expressing MT-2 or an empty vector construct were cultivated in Dulbecco’s Modified Eagle’s Medium (DMEM) containing fetal bovine serum (FBS) as well as penicillin and streptadivin in a concentration of […] at 37 °C. […] The protein concentration of the obtained protein mixture was determined by absorption measurements using Roti-Nanoquant Bradford solution.
Kinetic measurements were performed on a Fluostar Optima plate reader (BMG Lab Tech, Offenburg, Germany) in 96 well plates. […]

matriptase-2 (MT-2) [2] = target: T2, matriptase-2 (MT-2) (Homo sapiens, UniProt Q8IU80); assay: MT-2 activity on the surface of transfected HEK cells; format: cell-based
T2 construct: expressed in transfected cells; host or cells: stably transfected HEK cells
T2 sequence (Q8IU80 1-802 isoform Q8IU80-1): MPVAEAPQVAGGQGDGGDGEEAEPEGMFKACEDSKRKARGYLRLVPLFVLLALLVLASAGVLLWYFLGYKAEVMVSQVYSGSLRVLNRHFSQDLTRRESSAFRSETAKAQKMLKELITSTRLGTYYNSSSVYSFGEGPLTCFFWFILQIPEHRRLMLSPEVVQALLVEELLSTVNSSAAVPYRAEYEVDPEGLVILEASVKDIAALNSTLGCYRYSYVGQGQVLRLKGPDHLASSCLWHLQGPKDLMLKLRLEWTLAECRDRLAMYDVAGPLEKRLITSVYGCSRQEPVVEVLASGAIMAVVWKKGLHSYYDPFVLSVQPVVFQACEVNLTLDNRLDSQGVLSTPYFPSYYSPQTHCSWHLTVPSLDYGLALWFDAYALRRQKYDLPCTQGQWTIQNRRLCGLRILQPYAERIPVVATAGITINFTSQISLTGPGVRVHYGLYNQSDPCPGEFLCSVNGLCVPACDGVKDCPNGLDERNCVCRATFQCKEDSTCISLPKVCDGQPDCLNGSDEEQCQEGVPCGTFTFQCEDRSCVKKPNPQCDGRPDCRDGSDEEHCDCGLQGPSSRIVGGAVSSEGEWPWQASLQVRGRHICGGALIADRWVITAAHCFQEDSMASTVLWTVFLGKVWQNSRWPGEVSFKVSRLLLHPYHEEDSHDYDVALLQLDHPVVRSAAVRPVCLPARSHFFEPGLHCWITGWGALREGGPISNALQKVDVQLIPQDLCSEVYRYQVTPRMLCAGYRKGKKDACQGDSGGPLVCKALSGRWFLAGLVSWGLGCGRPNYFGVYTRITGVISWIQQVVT
Procedure: To further investigate the inhibitory potency of the probe in an in vitro approach, MT-2 activity was measured on the surface of stably transfected HEK cells expressing MT-2. Different probe concentrations were applied (Figure 3).
To measure MT-2 activity at the cell surface, HEK cells were seeded in 96 well cell culture plates and cultivated at 37 °C in DMEM medium until a confluence of approximately 70% was reached. After two washing steps with PBS and two further days of incubation in Opti-MEM medium at 37 °C, the culture medium was removed and the cells were washed two times with PBS. MT-2 assay buffer, biotin-RQRR-CMK and DMSO were then directly added to the cells before the reaction was started by adding substrate solution in a final concentration of 40 µM to each well. The conversion of the substrate by MT-2 was followed over a time of 50 min at 37 °C.

matriptase-2 (MT-2) [3] = assay: Western blot detection of biotin-RQRR-CMK-labeled MT-2 in HEK-cell supernatant (Strep-Tactin/AP); details: 30 µg HEK-MT-2 supernatant, 50 µM aprotinin for 2 h before probe (5 µM, 30 min)
Procedure: Similar to antibody staining addressing the myc tag, the biotin tag which was chemically introduced by biotin-RQRR-CMK was employed for the detection of MT-2 after western blotting. For this purpose, 30 µg of HEK-mock or HEK-MT-2 supernatants were incubated with or without biotin-RQRR-CMK prior to SDS-PAGE. After transfer to a nitrocellulose membrane, the blot was incubated with a conjugate of Strep-Tactin with alkaline phosphatase (AP). […] This band was only observed in the supernatant of HEK cells expressing active MT-2 that was treated with the probe.
(§2) To confirm that biotin-RQRR-CMK binds to the active site of MT-2, we added aprotinin to the supernatants of HEK-MT-2 cells. Treatment with aprotinin or DMSO was carried out 2 h prior to probe treatment. […] MT-2 was present in the supernatant of transfected HEK cells incubated with the probe and/or aprotinin (Figure 6: panel a).
as §1, with “solution. […]” for “solution.”

MT-2 = details: active-site directed inhibitor of serine proteases; ref [1],[38]; cited from earlier work
Procedure: as §2

kinac/Ki (second-order rate constant of inactivation) (matriptase-2 (MT-2) [1])	pKi (matriptase-2 (MT-2) [2]; surface of stably transfected HEK cells, probe 100–600 nM, substrate 40 µM, MT-2 assay buffer, 37 °C, 50 min, linear regression of progress curves, equation (3))	Ki (in words) (matriptase-2 (MT-2) [2]; surface of transfected HEK cells)	Compound	protection of MT-2 from labeling by biotin-RQRR-CMK (matriptase-2 (MT-2) [3])	inhibition of MT-2 (MT-2)
10,800 M^−1 s^−1	7.05	two-digit nanomolar Ki value	N=C(N)NCCC[C@H](NC(=O)[C@H](CCCNC(=N)N)NC(=O)[C@H](CCC(N)=O)NC(=O)[C@H](CCCNC(=N)N)NC(=O)CCCC[C@@H]1SC[C@@H]2NC(=O)N[C@@H]21)C(=O)CCl [biotin-RQRR-CMK] (Biotin-RQRR-CH2Cl)		
			aprotinin	labeled MT-2 fragment which was missing in HEK-MT-2 supernatants after aprotinin treatment	has been shown to inhibit MT-2
